Experimental data: patent US20070149508A1, “Six membered heteroaromatic inhibitors targeting resistant kinase mutations” (TargeGen, Inc., priority 2005, published 2007)
Structures can show the parent of a compound that is named as a salt. Values belong to the molecule of their own block, whether it stands above or below them.

Experiments:
Abl (T315I) = target: T1, Abl (T315I) (Homo sapiens, UniProt P00519, T315I); assay: Abl (T315I) Kinase Assay (KinaseGlo luminescent detection of residual ATP); format: biochemical; details: Abl (T315I) IC50 (nM), Abl (T315I) (Upstate, 17 ng/well), Abltide 100 uM, ATP 500 nM, 60 minutes at 37° C.
T1 construct: purchased Upstate
Protocol: The assay was performed similarly to the Abl kinase assay. Abl (T315I) (Upstate, 17 ng/well); Abltide substrate (100 uM) and ATP (500 nM) comprised the reaction mixture. Compound was similarly diluted, and the reaction plate was incubated for 60 minutes at 37° C.

Abl kinase = Abl kinase (Homo sapiens, UniProt P00519); assay: biochemical; details: Abl IC50 (nM), Abl kinase (Invitrogen, 20 ng/well), Abltide 100 μM, ATP 500 nM, 37° C. for 60 minutes, top concentration 10 uM
Protocol: Kinase activity was assessed using luminescent detection (KinaseGlo, Promega) of residual ATP concentration in reaction mixtures containing optimized levels of kinase, substrate, ATP, compound and appropriate buffers. Kinase, substrate and ATP concentrations were determined per the supplier's recommendations. Briefly, this involved running concentration curves to select for optimal signal.
The reaction mixture (50 ul/well) consisted of Abl kinase (Invitrogen, 20 ng/well); Abltide peptide substrate (Upstate, 100 μM) and ATP (500 nM). Each compound was evaluated at a top concentration of 10 uM with 1:3 dilution steps, 10 dilution steps total. Compound was diluted into DMSO and transferred to the reaction plate, resulting in a final DMSO concentration of 2%. This amount of DMSO was determined not to interfere with the enzyme. The reaction was conducted at 37° C. for 60 minutes. The degree of inhibition was assessed using IC50 determinations, which were obtained using GraphPad Prism4.

SMILES: NCC(=O)N1CCC(S(=O)(=O)c2ccc(Nc3ncc(/C=C/c4cccc5[nH]ccc45)cn3)cc2)CC1 [1-(4-(4-(5-((E)-2-(1H-indol-4-yl)vinyl)pyrimidin-2-ylamino)phenylsulfonyl)piperidin-1-yl)-2-aminoethanone hydrochloride]
IC50 (Abl (T315I)): 700 nM | IC50 (Abl kinase): 66 nM

SMILES: OCCN1CCN(c2cccc(Nc3ncc(/C=C/c4cccc5[nH]ccc45)cn3)c2)CC1 [2-(4-(3-(5-((E)-2-(1H-indol-4-yl)vinyl)pyrimidin-2-ylamino)phenyl)piperazin-1-yl)ethanol Hydrochloride]
IC50 (Abl kinase): 178 nM

SMILES: O=S(=O)(c1ccc(Nc2ncc(/C=C/c3cccc4[nH]ccc34)cn2)cc1)C1CCN(CCO)CC1 [2-(4-(4-(5-((E)-2-(1H-indol-4-yl)vinyl)pyrimidin-2-ylamino)phenylsulfonyl)piperidin-1-yl)ethanol Hydrochloride]
IC50 (Abl (T315I)): 202 nM | IC50 (Abl kinase): 8.4 nM

SMILES: Nc1nc2ccc(/C=C/c3cnc(Nc4ccc(S(=O)(=O)N5CCC(NCCO)CC5)cc4)nc3)cc2s1 [2-[(1-{[4-({5-[(E)-2-(2-amino-1,3-benzothiazol-6-yl)vinyl]pyrimidin-2-yl}amino)phenyl]sulfonyl}piperidin-4-yl)amino]ethanol]
IC50 (Abl (T315I)): 146 nM | IC50 (Abl kinase): 158 nM

SMILES: O=S(=O)(c1ccc(Nc2ncc(/C=C/c3cccc4[nH]ncc34)cn2)cc1NCCO)N1CCNCC1 [2-{[5-({5-[(E)-2-(1H-indazol-4-yl)vinyl]pyrimidin-2-yl}amino)-2-(piperazin-1-ylsulfonyl)phenyl]amino}ethanol]
IC50 (Abl (T315I)): 233 nM | IC50 (Abl kinase): 6.5 nM

SMILES: Nc1nc2ccc(/C=C/c3cnc(Nc4ccc(S(=O)(=O)N5CCNCC5)c(NCCO)c4)nc3)cc2s1 [2-{[5-({5-[(E)-2-(2-amino-1,3-benzothiazol-6-yl)vinyl]pyrimidin-2-yl}amino)-2-(piperazin-1-ylsulfonyl)phenyl]amino}ethanol]
IC50 (Abl (T315I)): 156 nM | IC50 (Abl kinase): 154 nM

SMILES: O=S(=O)(c1ccc(Nc2ncc(/C=C/c3ccccc3)cn2)cc1NCCO)N1CCNCC1 [2-{[5-({5-[(E)-2-phenylvinyl]pyrimidin-2-yl}amino)-2-(piperazin-1-ylsulfonyl)phenyl]amino}ethanol trifluoroacetic acid salt]
IC50 (Abl (T315I)): 2500 nM | IC50 (Abl kinase): 131 nM

SMILES: Nc1noc2c(/C=C/c3cnc(Nc4ccc(S(=O)(=O)N5CCNCC5)c(NCCO)c4)nc3)cccc12 [2-{[5-({5-{(E)-2-(3-amino-1,2-benzisoxazol-7-yl)vinyl]pyrimidin-2-yl}amino)-2-(piperazin-1-ylsulfonyl)phenyl]amino}ethanol]
IC50 (Abl (T315I)): 1860 nM | IC50 (Abl kinase): 34 nM

SMILES: Cc1cc(S(=O)(=O)N2CCNCC2)ccc1Nc1ncc(/C=C/c2cccc(O)c2)cn1 [3-(2-{2-[2-Methyl-4-(piperazine-1-sulfonyl)-phenylamino]-pyrimidin-5-yl}-vinyl)-phenol]
IC50 (Abl (T315I)): 10400 nM | IC50 (Abl kinase): 3450 nM

SMILES: O=S(=O)(c1ccc(Nc2ncc(/C=C/c3cccc(O)c3)cn2)cc1F)N1CCNCC1 [3-(2-{2-[3-Fluoro-4-(piperazine-1-sulfonyl)-phenylamino]-pyrimidin-5-yl}-vinyl)-phenol]
IC50 (Abl (T315I)): 266 nM | IC50 (Abl kinase): 56 nM

SMILES: O=S(=O)(c1ccc(Nc2ncc(/C=C/c3cccc(O)c3)cn2)cc1)N1CCC(CO)CC1 [3-(2-{2-[4-(4-Hydroxymethyl-piperidine-1-sulfonyl)-phenylamino]-pyrimidin-5-yl}-vinyl)-phenol]
IC50 (Abl (T315I)): 225 nM | IC50 (Abl kinase): 22 nM

SMILES: O=S(=O)(c1ccc(Nc2ncc(/C=C/c3cccc(O)c3)cn2)c(C(F)(F)F)c1)N1CCNCC1 [3-(2-{2-[4-(Piperazine-1-sulfonyl)-2-trifluoromethyl-phenylamino]-pyrimidin-5-yl}-vinyl)-phenol]
IC50 (Abl (T315I)): 1.53e+06 nM | IC50 (Abl kinase): 44700 nM

SMILES: O=S(=O)(c1ccc(Nc2ncc(/C=C/c3cccc(O)c3)cn2)cc1OC(F)(F)F)N1CCNCC1 [3-(2-{2-[4-(Piperazine-1-sulfonyl)-3-trifluoromethoxy-phenylamino]-pyrimidin-5-yl}-vinyl)-phenol]
IC50 (Abl (T315I)): 752 nM | IC50 (Abl kinase): 97 nM

SMILES: O=S(=O)(c1ccc(Nc2ncc(/C=C/c3cccc(O)c3)cn2)cc1C(F)(F)F)N1CCNCC1 [3-(2-{2-[4-(Piperazine-1-sulfonyl)-3-trifluoromethyl-phenylamino]-pyrimidin-5-yl}-vinyl)-phenol]
IC50 (Abl (T315I)): 1410 nM | IC50 (Abl kinase): 222 nM

SMILES: O=S(=O)(c1ccc(Nc2ncc(/C=C/c3cccc(O)c3)cn2)cc1)N1CCNCC1 [3-(2-{2-[4-(Piperazine-1-sulfonyl)-phenylamino]-pyrimidin-5-yl}-vinyl)-phenol]
IC50 (Abl (T315I)): 37 nM | IC50 (Abl kinase): 4.1 nM

SMILES: NS(=O)(=O)c1cccc(/C=C/c2cnc(Nc3ccc(S(=O)(=O)N4CCCNCC4)cc3)nc2)c1 [3-(2-{2-[4-([1,4]Diazepane-1-sulfonyl)-phenylamino]-pyrimidin-5-yl}-vinyl)-benzenesulfonamide]
IC50 (Abl (T315I)): 2440 nM | IC50 (Abl kinase): 781 nM

SMILES: Oc1ccc(Cl)c(/C=C/c2cnc(Nc3ccc(OCCN4CCCC4)cc3)nc2)c1 [3-((E)-2-(2-(4-(2-(pyrrolidin-1-yl)ethoxy)phenylamino)pyrimidin-5-yl)vinyl)-4-chlorophenol hydrochloride]
IC50 (Abl (T315I)): 972 nM | IC50 (Abl kinase): 13 nM

SMILES: Oc1cccc(/C=C/c2cnc(Nc3ccc(OCCN4CCCC4)cc3)nc2)c1 [3-((E)-2-(2-(4-(2-(pyrrolidin-1-yl)ethoxy)phenylamino)pyrimidin-5-yl)vinyl)phenol trifluoroacetate]
IC50 (Abl (T315I)): 297 nM | IC50 (Abl kinase): 30 nM

SMILES: Nc1cc(C(F)(F)F)cc(/C=C/c2cnc(Nc3ccc(S(=O)(=O)C4CCNCC4)cc3)nc2)c1N [3-((E)-2-(2-(4-(piperidin-4-ylsulfonyl)phenylamino)pyrimidin-5-yl)vinyl)-5-(trifluoromethyl)benzene 1,2-diamine.]
IC50 (Abl (T315I)): 522 nM | IC50 (Abl kinase): 210 nM

SMILES: O=S(=O)(c1ccc(Nc2ncc(/C=C/c3cccc(O)c3)cn2)cc1)N1CCC(CCO)CC1 [3-[2-(2-{4-[4-(2-Hydroxy-ethyl)-piperidine-1-sulfonyl]-phenylamino}-pyrimidin-5-yl)-vinyl]-phenol]
IC50 (Abl (T315I)): 160 nM | IC50 (Abl kinase): 18 nM

SMILES: O=S(=O)(c1ccc(Nc2ncc(/C=C/c3cccc(O)c3)cn2)cc1NCCO)N1CCNCC1 [3-{(E)-2-[2-({3-[(2-hydroxyethyl)amino]-4-(piperazin-1-ylsulfonyl)phenyl}amino)pyrimidin-5-yl]vinyl}phenol trifluoroacetic acid salt]
IC50 (Abl (T315I)): 78 nM | IC50 (Abl kinase): 7.3 nM

SMILES: NS(=O)(=O)c1ccc(/C=C/c2cnc(Nc3ccc(S(=O)(=O)N4CCCNCC4)cc3)nc2)cc1 [4-(2-{2-[4-([1,4]Diazepane-1-sulfonyl)-phenylamino]-pyrimidin-5-yl}-vinyl)-benzenesulfonamide]
IC50 (Abl (T315I)): 298 nM | IC50 (Abl kinase): 977 nM

More lines, now with the values ahead:

IC50 (Abl (T315I)): 475 nM | IC50 (Abl kinase): 1130 nM
SMILES: O=C(Nc1cn2cc(/C=C/c3cnc(Nc4ccc(S(=O)(=O)C5CCNCC5)cc4)nc3)ccc2n1)C(F)(F)F [2,2,2-Trifluoro-N-{6-[(E)-2-(2-{[4-(piperidin-4-ylsulfonyl)phenyl]amino}pyrimidin-5-yl)vinyl]imidazolo[1,2-a]pyridin-2-yl}acetamide trifluoroacetic acid salt]

IC50 (Abl (T315I)): 213 nM | IC50 (Abl kinase): 12 nM
SMILES: O=S(=O)(c1ccc(Nc2ncc(/C=C/c3ccc(F)c(O)c3)cn2)cc1)C1CCNCC1 [2-Fluoro-5-(2-{2-[4-(piperidine-4-sulfonyl)-phenylamino]-pyrimidin-5-yl}-vinyl)-phenol]

IC50 (Abl (T315I)): 96 nM | IC50 (Abl kinase): 31 nM
SMILES: O=S(=O)(CC1CCNCC1)c1ccc(Nc2ncc(/C=C/c3cccc(O)c3)cn2)cc1 [3-(2-{2-[4-(Piperidin-4-ylmethanesulfonyl)-phenylamino]-pyrimidin-5-yl}-vinyl)-phenol]

IC50 (Abl (T315I)): 53000 nM | IC50 (Abl kinase): 3670 nM
SMILES: N=C(N)c1cccc(/C=C/c2cnc(Nc3ccc(S(=O)(=O)C4CCNCC4)cc3)nc2)c1 [3-(2-{2-[4-(Piperidine-4-sulfonyl)-phenylamino]-pyrimidin-5-yl}-vinyl)-benzamidine]

IC50 (Abl (T315I)): 2070 nM | IC50 (Abl kinase): 198 nM
SMILES: NS(=O)(=O)c1cccc(/C=C/c2cnc(Nc3ccc(S(=O)(=O)C4CCNCC4)cc3)nc2)c1 [3-(2-{2-[4-(Piperidine-4-sulfonyl)-phenylamino]-pyrimidin-5-yl}-vinyl)-benzenesulfonamide Hydrochloride]

IC50 (Abl (T315I)): 22 nM | IC50 (Abl kinase): 1.7 nM
SMILES: O=S(=O)(c1ccc(Nc2ncc(/C=C/c3cccc(O)c3)cn2)cc1)C1CCNCC1 [3-(2-{2-[4-(Piperidine-4-sulfonyl)-phenylamino]-pyrimidin-5-yl}-vinyl)-phenol]

IC50 (Abl (T315I)): 65 nM | IC50 (Abl kinase): 10 nM
SMILES: Cc1nc(Nc2ccc(S(=O)(=O)C3CCNCC3)cc2)ncc1/C=C/c1cccc(O)c1 [3-((E)-2-(2-(4-(piperidin-4-ylsulfonyl)phenylamino)-4-methylpyrimidin-5-yl)vinyl)phenol hydrochloride]

IC50 (Abl (T315I)): 192 nM | IC50 (Abl kinase): 32 nM
SMILES: O=S(=O)(c1ccc(Nc2ccc(/C=C/c3cccc(O)c3)cn2)cc1)C1CCNCC1 [3-((E)-2-(6-(4-(piperidin-4-ylsulfonyl)phenylamino)pyridin-3-yl)vinyl)phenol hydrochloride]

IC50 (Abl (T315I)): 2270 nM | IC50 (Abl kinase): 127 nM
SMILES: O=C1Cc2c(/C=C/c3cnc(Nc4ccc(S(=O)(=O)C5CCNCC5)cc4)nc3)cccc2N1 [4-(2-{2-[4-(Piperidine-4-sulfonyl)-phenylamino]-pyrimidin-5-yl}-vinyl)-1,3-dihydro-indol-2-one, hydrogen chloride]

IC50 (Abl (T315I)): 32 nM | IC50 (Abl kinase): 15 nM
SMILES: O=S(=O)(c1ccc(Nc2ncc(/C=C/c3ccc(O)cc3)cn2)cc1)C1CCNCC1 [4-(2-{2-[4-(Piperidine-4-sulfonyl)-phenylamino]-pyrimidin-5-yl}-vinyl)-phenol]
